# Test system: 935938-334-R-J1-PDC complex spheroid viability
# Experiment: Anticancer human tumor 935938-334-R-J1-PDC patient-derived small intestine adenocarcinoma cell line growth inhibition [POLQ]
# Conditions: for IC50: curve of first compound; for viability, T/C: stronger effect = lower value
# Summary of the method: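 PDC + HUVEC + MSC complex spheroids; POLQ inhibitors ± partner drugs; top conc. at/near clinical Cmax, else 10 microM (SN-38 1 microM), half-log dilutions; 37 degrees C, 5% CO2.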
# [1] = second compound 0.0316 µM, first compound 0.0316 µM
# [2] = second compound 0.0316 µM, first compound 0.1 µM
# [3] = second compound 0.0316 µM, first compound 0.316 µM
# [4] = second compound 0.0316 µM, first compound 1 µM
# [5] = second compound 0.0316 µM, first compound 3.16 µM
# [6] = second compound 0.0316 µM, first compound 10 µM
# [7] = second compound 0.1 µM, first compound 0.0316 µM
# [8] = second compound 0.1 µM, first compound 0.1 µM
# [9] = second compound 0.1 µM, first compound 0.316 µM
# [10] = second compound 0.1 µM, first compound 1 µM
# [11] = second compound 0.1 µM, first compound 3.16 µM
# [12] = second compound 0.1 µM, first compound 10 µM
# [13] = second compound 0.316 µM, first compound 0.0316 µM
# [14] = second compound 0.316 µM, first compound 0.1 µM
# [15] = second compound 0.316 µM, first compound 0.316 µM
# [16] = second compound 0.316 µM, first compound 1 µM
# [17] = second compound 0.316 µM, first compound 3.16 µM
# [18] = second compound 0.316 µM, first compound 10 µM
# [19] = second compound 1 µM, first compound 0.0316 µM
# [20] = second compound 1 µM, first compound 0.1 µM
# [21] = second compound 1 µM, first compound 0.316 µM
# [22] = second compound 1 µM, first compound 1 µM
# [23] = second compound 1 µM, first compound 3.16 µM
# [24] = second compound 1 µM, first compound 10 µM
# [25] = second compound 3.16 µM, first compound 0.0316 µM
# [26] = second compound 3.16 µM, first compound 0.1 µM
# [27] = second compound 3.16 µM, first compound 0.316 µM
# [28] = second compound 3.16 µM, first compound 1 µM
# [29] = second compound 3.16 µM, first compound 3.16 µM
# [30] = second compound 3.16 µM, first compound 10 µM
# [31] = second compound 10 µM, first compound 0.0316 µM
# [32] = second compound 10 µM, first compound 0.1 µM
# [33] = second compound 10 µM, first compound 0.316 µM
# [34] = second compound 10 µM, first compound 1 µM
# [35] = second compound 10 µM, first compound 3.16 µM
# [36] = second compound 10 µM, first compound 10 µM
# 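Note: spheroids exposed to drugs for seven days before viability read.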
# 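Throughout, for viability, T/C: 100% = DMSO vehicle control wells.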
smiles,measurement,setting,value
CCCS(=O)(=O)Nc1ccc(F)c(C(=O)c2c[nH]c3ncc(-c4ccc(Cl)cc4)cc23)c1F + Cc1cccc(N(C)C(=O)C2C(O)CCN2c2nc(C)cc(C(F)(F)F)c2C#N)c1,IC50,second compound 0.0316 µM,> 10000 nM
same,IC50,second compound 0.1 µM,9270 nM
same,IC50,second compound 0.316 µM,9180 nM
same,IC50,second compound 1 µM,9750 nM
same,IC50,second compound 3.16 µM,> 10000 nM
same,IC50,second compound 10 µM,9010 nM
same,"viability, T/C",[1],85.3%
same,"viability, T/C",[2],97.4%
same,"viability, T/C",[3],117%
same,"viability, T/C",[4],147%
same,"viability, T/C",[5],146%
same,"viability, T/C",[6],51%
same,"viability, T/C",[7],114%
same,"viability, T/C",[8],119%
same,"viability, T/C",[9],166%
same,"viability, T/C",[10],121%
same,"viability, T/C",[11],112%
same,"viability, T/C",[12],45%
same,"viability, T/C",[13],97.4%
same,"viability, T/C",[14],115%
same,"viability, T/C",[15],119%
same,"viability, T/C",[16],120%
same,"viability, T/C",[17],120%
same,"viability, T/C",[18],44.8%
same,"viability, T/C",[19],95.7%
same,"viability, T/C",[20],125%
same,"viability, T/C",[21],121%
same,"viability, T/C",[22],148%
same,"viability, T/C",[23],131%
same,"viability, T/C",[24],48.2%
same,"viability, T/C",[25],88.9%
same,"viability, T/C",[26],108%
same,"viability, T/C",[27],123%
same,"viability, T/C",[28],151%
same,"viability, T/C",[29],113%
same,"viability, T/C",[30],51.4%
same,"viability, T/C",[31],106%
same,"viability, T/C",[32],109%
same,"viability, T/C",[33],127%
same,"viability, T/C",[34],146%
same,"viability, T/C",[35],149%
same,"viability, T/C",[36],42.1%
COc1cc(C2c3cc4c(cc3C(OC3OC5COC(C)OC5C(O)C3O)C3COC(=O)C23)OCO4)cc(OC)c1O (centres undefined) + COC1C(OC(N)=O)C(O)C(Oc2ccc3c(O)c(NC(=O)c4ccc(O)c(CC=C(C)C)c4)c(=O)oc3c2C)OC1(C)C,IC50,second compound 0.0316 µM,1040 nM
same,IC50,second compound 0.1 µM,683 nM
same,IC50,second compound 0.316 µM,691 nM
same,IC50,second compound 1 µM,569 nM
same,IC50,second compound 3.16 µM,887 nM
same,IC50,second compound 10 µM,706 nM
same,"viability, T/C",[1],97.7%
same,"viability, T/C",[2],81.4%
same,"viability, T/C",[3],70.2%
same,"viability, T/C",[4],47.3%
same,"viability, T/C",[5],39.5%
same,"viability, T/C",[6],29.4%
same,"viability, T/C",[7],105%
same,"viability, T/C",[8],94%
same,"viability, T/C",[9],67.3%
same,"viability, T/C",[10],41.8%
same,"viability, T/C",[11],30.8%
same,"viability, T/C",[12],30.7%
same,"viability, T/C",[13],134%
same,"viability, T/C",[14],85.2%
same,"viability, T/C",[15],80.4%
same,"viability, T/C",[16],32.8%
same,"viability, T/C",[17],27.5%
same,"viability, T/C",[18],26%
same,"viability, T/C",[19],105%
same,"viability, T/C",[20],126%
same,"viability, T/C",[21],62.2%
same,"viability, T/C",[22],57.6%
same,"viability, T/C",[23],26.7%
same,"viability, T/C",[24],30.6%
same,"viability, T/C",[25],78%
same,"viability, T/C",[26],108%
same,"viability, T/C",[27],83.3%
same,"viability, T/C",[28],46.7%
same,"viability, T/C",[29],28.9%
same,"viability, T/C",[30],32.6%
same,"viability, T/C",[31],96.9%
same,"viability, T/C",[32],75.9%
same,"viability, T/C",[33],68.7%
same,"viability, T/C",[34],43.9%
same,"viability, T/C",[35],27.4%
same,"viability, T/C",[36],35.5%

# Reference: PubChem BioAssay AID1963829 (Molecular Pharmacology Branch, DTP, NCI, 2024)
